Where two headings read alike, the source gives them in different places.
Key:
[1] = Pharmacokinetic profile in Sprague Dawley rats (IV and PO); type: in vivo; details: Mean + SD (n = 3); for F (oral bioavailability) / bioavailability: PO 5 mg/kg vs IV 1 mg/kg; for half-life / Cmax / bioavailability: Sprague Dawley; for half-life / Cmax / bioavailability / C0 / AUC(0-inf) / AUC(0-t) / clearance / MRT inf / Tmax: rat, plasma; for bioavailability: read-out: F (oral bioavailability); for clearance: read-out: Cl_obs
Method: To evaluate the pharmacokinetic profile by oral (PO) and intravenous (IV) administration routes we used 6 to 8-week old Sprague Dawley rats weighing approximately 200-330g (n = 3 per study group). Compounds were administered at 1mg/kg in 5% Cremophor EL and 20% PEG400 in water for IV and 5mg/kg in PBS for PO. All dose formulation was performed at room temperature. Animals were fasted overnight prior to dosing and were re-fed approximately 4 hours after dosing. For PO, 0.2ml of blood was collected pre- and 0.5, 1, 2, 4 8 12 and 24-hours after drug delivery and transferred to EDTA-K2 BD Vacutainer plastic blood collection tubes. IV samples were collected pre-injection and 0.08, 0.25, 0.5, 1, 2, 4, 8, 12, 24-hours post injection. Blood samples were centrifuged at 2,000 g for 5 minutes at 4°C to obtain plasma. Plasma samples were stored at -75±15°C prior to analysis and then thawed and analyzed by LC-MS/MS method and pharmacokinetic calculations were performed using WinNolin (Phoenix, version 6.4). For IV administration: T1/2, C0, AUClast, AUCinf, MRT, Cl, Vss, and number of points for regression were determined. For PO administration: T1/2, Cmax, Tmax, AUCinf, AUClast, F(0-∞) %, and number of points for regression were determined. Data are reported as mean and standard deviation.

[2] = Body weight changes in HFD-fed mice; type: in vivo, mouse; details: 10mg/kg I.P daily for 12 days
Method: We next measured body weight changes in HFD-fed animals prior to treatment with niclosamide or phenylbenzamide derivatives and after 12 days, prior to sacrifice. During this time, all animals (including sham) lost some weight.
20-week old animals were treated IP with 500199 at 10 or 25mg/kg by IP over a time-course of 9 days. At day 0, 3, 6 and 9 animals were weighed and tissue samples were collected for standard histological scoring of hepatic steatosis and automated quantitative histomorphometric scoring.

[3] = system: fatty acid synthase (FAS); test: Western blot of fatty acid synthase in liver of HFD-fed mice; details: HFD fed-DIO mice; 10mg/kg for 12 days; vs sham
[4] = system: Phosphorylated AMPK (Thr-172); test: High-throughput phosphorylated AMPK (Thr-172) TR-FRET assay in HepG2 cells; type: cell-based, human; details: HepG2 TR-FRET dose response between 0.625 and 10 μM, 4 hours; also Western blot
Method: Phosphorylated AMPK (Thr-172) TR-FRET Assay Kit was purchased from CisBio (Bedford MA). HepG2 [HB-8065] cells were trypsinized, harvested and counted using Countess II FL automated cell counter (Thermo Fisher Scientific). Cells were then seeded in Poly-D-Lysine coated 96-well black optical plates at a concentration of 10,000 cells per well in 50μL growth medium. After 24-hours, the media was removed and replaced with 50μL of fresh growth media containing compounds. Five concentrations of each compound were prepared, ranging from 10 to 0.625 μM and applied to columns 2–11 of the cell plate. Control wells contained DMSO (column 1-minimum response control) or 500199 (column 12-maximum response control). The final DMSO concentration was 0.45%. Cells were cultured for 4 hours before cells were lysed in 50μL of lysis buffer for 30 minutes at room temperature according to assays protocol. Following lysis, 16μL of lysate was transferred to white 384 well small volume assay plate and 4μL of antibody dyes were added per assay protocol.
Following overnight incubation, quantitation was performed on a PHERAstar (BMG), using the HTRF protocol with an excitation wavelength of 337nm and emission wavelengths of 665nm and 620nm. The ratio between emission spectra (665/620) was assessed for each well individually and averaged for triplicate samples. Data are presented as mean ratio ± SE. The differences between the control (DMSO) and the compound treated wells were analyzed using two-way ANOVA and Dunnett’s post hoc test. A value of p<0.05 was considered to be significant.
Fig 5 Validation of AMPK pathway activation by phenylbenzamide derivatives in HepG2 cells. A) Cells were seeded at 10,000 cells per well 24 hours prior to treating cells with indicated concentration of compound or DMSO (CTL) for 4 hours. 16μL of cell lysate was incubated with HTRF phospho-AMPK detection reagents and fluorescence emission read at 665nm and 620nm using a PHERAstar platereader. The mean and standard deviation of the HTRF Ratio from three replicate wells is shown. The unstimulated (DMSO) and positive controls lysates are shown in green and red respectively.

[5] = system: carbonic anhydrase-III (CAIII); test: Western blot of carbonic anhydrase III in liver of HFD-fed mice; details: HFD fed-DIO mice; 10mg/kg for 12 days; vs sham
[6] = system: Salmonella typhimurium (TA98, TA100, TA1535 and TA1537) and Escherichia coli (WP2 uvrA (pKM101)); test: Ames assay, overall outcome and cytotoxicity across strains
[7] = system: Salmonella typhimurium TA1535; details: for Mean Revertant Colony Counts TA-1535 SP9+: with S9; for Mean Revertant Colony Counts TA-1535 S9-: without S9
p-AMPK Thr-172 = test: Western blot of p-AMPK Thr-172 in liver of HFD-fed mice; details: HFD fed-DIO mice; 10mg/kg for 12 days; vs sham
[8] = iv, 1 mg/kg, IV 1 mg/kg, read-out: T 1/2 (IV) (converted)
[9] = IV 1 mg/kg, read-out: AUC Inf (IV)
[10] = IV 1 mg/kg, read-out: AUC last (IV)
[11] = IV 1 mg/kg, read-out: MRT Inf_obs (IV)
[12] = PO 5 mg/kg in PBS, read-out: AUC Inf (PO)
[13] = PO 5 mg/kg in PBS, read-out: AUC last (PO)
[14] = PO 5 mg/kg in PBS, read-out: MRT Inf_obs (PO)

CC(C)(C)c1ccc(O)c(C(=O)Nc2ccc(C(=O)O)cc2C(F)(F)F)c1 [Compound 500873, 4-[(5-tert-butyl-2-hydroxy)amido]-3-(trifluoromethyl)benzoic acid]
AUC _%Extrap_obs (IV) ([1]; IV 1 mg/kg): 0.249 +/- 0.151%
AUCl ast/D (IV) ([1]; IV 1 mg/kg): 13000 ± 3070 ng·kg·h/mL/mg
V ss_obs ([1]; IV 1 mg/kg): 0.11 ± 0.004 L/kg
AUC _%Extrap_obs (PO) ([1]; PO 5 mg/kg in PBS): 11.14 +/- 11.6%
AUC last / D (PO) ([1]; PO 5 mg/kg in PBS): 1290 ± 817 ng·kg·h/mL/mg
C max ([1]; PO 5 mg/kg in PBS, 5 mg/kg): 912.33 ± 856 ng/mL
F (oral bioavailability) [1]: 10.20 +/-6.3%
half-life [1, 8]: 2.87 ± 0.86 h
Cmax ([1]; po, 5 mg/kg, PO 5 mg/kg in PBS): 912 ng/mL
bioavailability ([1]; po, 5 mg/kg): 10%
C0 ([1]; IV 1 mg/kg): 24100 ± 4000 ng/mL
AUC(0-inf) [1, 9]: 13000 ± 3070 ng·h/mL
AUC(0-t) [1, 10]: 13000 ± 3070 ng·h/mL
clearance ([1]; IV 1 mg/kg): 1.33 ± 0.31 mL/min/kg
MRT inf [1, 11]: 1.42 ± 0.29 h
Tmax ([1]; PO 5 mg/kg in PBS): 3.33 ± 1.15 h
AUC(0-inf) [1, 12]: 6950 ± 3680 ng·h/mL
AUC(0-t) [1, 13]: 6430 ± 4080 ng·h/mL
MRT inf [1, 14]: 10 ± 5.6 h
body weight change vs sham [2]: lost weight but this loss failed to reach significance

CC(C)(C)c1cc(C(=O)Nc2ccc(C(=O)O)cc2Cl)c(O)c(C(C)(C)C)c1 [Compound 600453, 3-Chloro-4-[(3,5-di-tert-butyl-2-hydroxybenzene)amido]benzoic acid]
FAS protein levels in liver [3]: reduced
phosphorylation of AMPK (Figs 5 and 4D) [4]: stimulated phosphorylation of AMPK
CAIII protein levels in liver [5]: reduced
Ames assay outcome (mutagenicity) [6]: negative
cytotoxicity in the Ames assay ([6]; relative to the negative control, presence and absence of S9 mix): no cytotoxicity was exhibited at any concentration
AUC _%Extrap_obs (IV) ([1]; IV 1 mg/kg): 0.50 +/-0.114%
AUCl ast/D (IV) ([1]; IV 1 mg/kg): 5400 ± 683 ng·kg·h/mL/mg
V ss_obs ([1]; IV 1 mg/kg): 0.60 ± 0.076 L/kg
AUC _%Extrap_obs (PO) ([1]; PO 5 mg/kg in PBS): 2.22 +/- 1.36%
AUC last / D (PO) ([1]; PO 5 mg/kg in PBS): 3390 ± 551 ng·kg·h/mL/mg
T 1/2 (PO) ([1]; PO 5 mg/kg in PBS, 5 mg/kg): 3.91 ± 0.75 h
F (oral bioavailability) [1]: 63.91 +/- 10.5%
half-life [1, 8]: 3.68 ± 0.13 h
Cmax ([1]; po, 5 mg/kg, PO 5 mg/kg in PBS): 2050 ± 558 ng/mL
half-life ([1]; po, 5 mg/kg, PO 5 mg/kg in PBS, read-out: T 1/2 (PO) (converted)): 3.9 h
bioavailability ([1]; po, 5 mg/kg): 64%
C0 ([1]; IV 1 mg/kg): 2816 ± 7.02 ng/mL
AUC(0-inf) [1, 9]: 5420 ± 689 ng·h/mL
AUC(0-t) [1, 10]: 5400 ± 683 ng·h/mL
clearance ([1]; IV 1 mg/kg): 3.11 ± 0.42 mL/min/kg
MRT inf [1, 11]: 3.22 ± 0.32 h
Tmax ([1]; PO 5 mg/kg in PBS): 4 h
AUC(0-inf) [1, 12]: 17300 ± 2850 ng·h/mL
AUC(0-t) [1, 13]: 16900 ± 2750 ng·h/mL
MRT inf [1, 14]: 7.4 ± 0.44 h
Mean Revertant Colony Counts TA-1535 SP9+ ([7]; 1.5 ug/Well): 2.7
Mean Revertant Colony Counts TA-1535 S9- ([7]; 1.5 ug/Well): 4.0
Mean Revertant Colony Counts TA-1535 SP9+ ([7]; 4 ug/Well): 3.7
Mean Revertant Colony Counts TA-1535 S9- ([7]; 4 ug/Well): 3.7
Mean Revertant Colony Counts TA-1535 SP9+ ([7]; 10 ug/Well): 2.7
Mean Revertant Colony Counts TA-1535 S9- ([7]; 10 ug/Well): 1.7
Mean Revertant Colony Counts TA-1535 SP9+ ([7]; 25 ug/Well): 2.3
Mean Revertant Colony Counts TA-1535 S9- ([7]; 25 ug/Well): 2.7
Mean Revertant Colony Counts TA-1535 SP9+ ([7]; 64 ug/Well): 3.0
Mean Revertant Colony Counts TA-1535 S9- ([7]; 64 ug/Well): 1.7
Mean Revertant Colony Counts TA-1535 SP9+ ([7]; 160 ug/Well): 3.3
Mean Revertant Colony Counts TA-1535 S9- ([7]; 160 ug/Well): 4.0
Mean Revertant Colony Counts TA-1535 SP9+ ([7]; 400 ug/Well): 2.0
Mean Revertant Colony Counts TA-1535 S9- ([7]; 400 ug/Well): 2.7
Mean Revertant Colony Counts TA-1535 SP9+ ([7]; 1000 ug/Well): 2.0
Mean Revertant Colony Counts TA-1535 S9- ([7]; 1000 ug/Well): 2.7
fold increase in the mean number of revertant colonies, TA1535 ([7]; any concentration tested, vs negative control): < 3 fold
body weight change vs sham [2]: lost significantly more weight
phosphorylation of AMPK at Thr-172 in liver (p-AMPK Thr-172): stimulated phosphorylation of AMPK at Thr-172
